The values below come from US6355642B1, “Tetrahydrobenzindole compounds” (Meiji Seika Kaisha, Ltd., priority 1996, dated 2002).

Like-named read-outs stand apart in the source and are kept apart here.

Assay [1] deals with T1, human serotonin 5-HT7 receptor subtype (Homo sapiens, UniProt P34969).
T1 construct: expressed in transfected cells
Briefly: Binding affinity for 5-HT7 receptor ([3H]-5-CT displacement, membrane fraction of expressing cells). As for the experimental part: Binding Affinity for 5-HT7 Receptor
Cultured cells capable of expressing human serotonin 5-HT7 receptor subtype were collected in an assay buffer (50 mM Tris-HCl, pH 7.4, containing […], 0.2 mM EDTA, 0.001% pargyline and 0.1% ascorbic acid) and homogenized with a Potter type homogenizer. Then the membrane fraction was subjected to 20 minutes of centrifugation at 39,000 g and at 4° C. The thus obtained pellet was re-suspended in 1 ml (per cells per one culture dish of 10 cm in diameter) of the assay buffer and homogenized again. This test was carried out on 1 nM in final concentration of [^3H]-5-CT (carboxamide triptamine) and 1 to 1, 000 nM of the compounds of Examples 1 to 90 represented by the general formula (I). A 100 μl of the membrane fraction was added to the reaction tube, final assay volume was adjusted to 500 μl, and the reaction was carried out by incubating the medium at 37° C. for 15 minutes. The incubation was terminated by quickly filtering the reaction system on a GF/B filter which was subsequently washed with 6 ml of cold 50 mM Tris-HCl (pH 7.4). Radioactivity was measured using Packard liquid scintillation counter. Non-specific binding was determined by 10 μM metergoline, and the specific binding was calculated based on the difference. IC50 value of each compound was determined by non-linear least square regression analysis, and dissociation constant Ki was calculated from the value.

Assay [2] deals with T2, 5-HT2 receptor (Rattus norvegicus, UniProt P14842).
T2 construct: the thus obtained precipitate was used as P2 fraction; from tissue; host or cells: rat cerebral cortex, P2 membrane fraction
T2 sequence (P14842 whole entry): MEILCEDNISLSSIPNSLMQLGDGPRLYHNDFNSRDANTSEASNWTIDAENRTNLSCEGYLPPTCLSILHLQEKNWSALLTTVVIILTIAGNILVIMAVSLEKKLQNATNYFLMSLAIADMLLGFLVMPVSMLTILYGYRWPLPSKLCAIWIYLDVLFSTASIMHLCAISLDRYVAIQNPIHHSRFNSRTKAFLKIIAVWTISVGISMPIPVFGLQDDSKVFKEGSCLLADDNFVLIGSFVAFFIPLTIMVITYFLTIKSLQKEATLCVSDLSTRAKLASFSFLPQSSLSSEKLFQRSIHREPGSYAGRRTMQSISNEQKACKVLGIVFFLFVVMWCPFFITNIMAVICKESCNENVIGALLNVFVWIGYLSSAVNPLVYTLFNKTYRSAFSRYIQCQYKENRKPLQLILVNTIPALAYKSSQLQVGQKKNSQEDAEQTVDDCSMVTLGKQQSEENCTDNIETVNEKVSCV
Briefly: Binding affinity for 5-HT2 receptor ([3H]ketanserin displacement, rat cerebral cortex P2 fraction). Particulars: 1 nM [3H]ketanserin, Ki calculated from IC50. The method, then: Binding Affinity for 5-HT2 receptor
Rat cerebral cortex was homogenized in 10 volumes of 0.32 M sucrose solution and centrifuged for 10 minutes at 900×g, and the resulting supernatant fluid was again centrifuged for 20 minutes at 11,500×g. The thus obtained precipitate was re-suspended in […] Tris-HCl (pH 7.4) buffer and centrifuged for 20 minutes at 39,900×g, and the thus obtained precipitate was used as P2 fraction. The P2 fraction was incubated at 37° C. for 15 minutes in 50 mM Tris-HCl (pH 7.4) buffer containing 1 nM of [^3H] ketanserin and each of the compounds of the present invention and then filtered after the reaction using Whatman GF/B glass filter. The ^3H radioactivity on the filter was measured using a liquid scintillation counter. Non-specific binding was determined in the presence of 10 μM ketanserin, and the specific binding was calculated based on the difference. IC50 value of each compound was determined by non-linear least square regression analysis, and dissociation constant Ki was calculated from the value. The dissociation constant of 5-HT2 obtained by this test, dissociation constant of 5-HT7 obtained in Test Example 1 and their ratio are shown in the following table. As is evident from the results shown in the following table, compounds of the present invention show their affinity for 5-HT2 receptor too, but they bind more selectively to 5-HT7 receptor.

Where [3] appears, read: human 5-HT7 expressing cultured cells, 1 nM [3H]-5-CT, Ki calculated from IC50, read-out: Ki (nM) of 5-HT7.

T1 sequence (P34969 whole entry): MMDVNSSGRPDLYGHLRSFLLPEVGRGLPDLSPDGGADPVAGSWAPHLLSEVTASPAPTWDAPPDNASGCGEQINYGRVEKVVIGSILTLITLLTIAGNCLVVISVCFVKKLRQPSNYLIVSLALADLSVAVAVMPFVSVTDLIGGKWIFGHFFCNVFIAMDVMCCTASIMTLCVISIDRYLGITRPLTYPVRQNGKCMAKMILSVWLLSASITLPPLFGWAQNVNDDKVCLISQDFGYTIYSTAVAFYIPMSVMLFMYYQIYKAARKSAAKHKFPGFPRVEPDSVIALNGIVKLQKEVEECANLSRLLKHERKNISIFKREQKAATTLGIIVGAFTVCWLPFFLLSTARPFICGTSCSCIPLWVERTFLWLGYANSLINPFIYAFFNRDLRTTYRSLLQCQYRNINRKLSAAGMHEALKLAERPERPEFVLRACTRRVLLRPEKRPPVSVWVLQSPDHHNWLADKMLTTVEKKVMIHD

A word on the Ki: it is a measure of affinity in units of concentration, obtained from inhibition or displacement. Regarding `COc1ccccc1N1CCN(CCCCC23CCCc4cccc(c42)NC3=O)CC1` (stereo not shown) [Compound 5, 2a-[4-{4-(2-Methoxyphenyl)piperazinyl}butyl]-2a,3,4,5-tetrahydrobenz[cd]indole-2(1H)-one], the Ki was 8.9 nM in assay [1] (setting [3]) and 61 nM in assay [2].

For `COC1(c2ccccc2)CCN(CCCCC23CCCc4cccc(c42)NC3=O)CC1` (stereo not shown) [Compound 56, 2a-[4-(4-Methoxy-4-phenyl-piperidyl)butyl]-2a,3,4,5-tetrahydrobenz[cd]indole-2(1H)-one], the inhibitory constant (Ki) was 27 nM in assay [1] and 414 nM in assay [2].

For the compound `O=C1Nc2cccc3c2C1(CCCCN1CCN(c2ccccn2)CC1)CCC3` (stereo not shown) [Compound 87, 2a-[4-{4-(^2-Pyridyl)piperazinyl}butyl]-2a,3,4,5-tetrahydrobenz[cd]indole-2(1H)-one], the Ki was 11 nM in assay [1] (setting [3]) and 120 nM in assay [2]. In addition, in assay [1] (ratio of dissociation constants Ki 5-HT2 / Ki 5-HT7), the 5-HT2/5-HT7 is 11.0.
